Measurements reported in PMC12592420, “A mismatch in enzyme-redox partnerships underlies divergent cytochrome P450 activities between human hepatocytes and microsomes” (Communications Biology, 2025).
“And” between values parts separate entries of the source, which are not always exact repeats. Equal entries are not always repeated.

Legend:
[1] = CLint in NADPH-supplemented human liver microsomes; conditions: for microsomal CLint at 1 µM / CLint scaled at 1 µM: human; for HLM/HH (ratio of scaled CLint,u): NADPH-HLM average over HH average
Experimental: (§1) Calculation and scaling of CLint,u was done using the equation below and 45 mg of microsomal protein per gram of liver. HLMCLint,u=ln2/x1/t1/2(min)xmLincubation/mgmicrosomalproteinx45mgmicrosomalprotein/gliverx21gliver/kg/Fuinc

Caco-2 cells = assay: Intrinsic permeability in Caco-2 cells with efflux inhibited; conditions: intrinsic (passive) permeability, at least one determination
[2] = Free fraction in HLM incubation, equilibrium dialysis; type: in vitro ADME, human; conditions: fraction unbound, measured or estimated by in silico models of Fuinc
[3] = LogD pH 7.4, octanol/phosphate buffer; conditions: for LogD pH 7.4: at least one determination; for logD: octanol/phosphate buffer, pH 7.4
human hepatocytes (HH) = assay: in vitro; conditions: for HH_CLint: single determination; for HH_CLint / HH_scaled_CLint,u: Fig. 4a
Experimental: (§2) Cryopreserved HH prepared from a mixed-gender pool of twenty donors (product X008000, lot EEO, BIOIVT), ten-donors (product S01205, lot MTJ, BIOIVT), ten donors (product S01205 lot LYB, BIOIVT) were utilised in the experiments. Cryopreserved HH were rapidly thawed in a water bath set at 37 °C and added to Leibovitz media that had been pre-warmed in the water bath. The suspension of cells was mixed gently and centrifuged at 40 × g for 4 min at room temperature. Excess media was removed, and the cells were re-suspended in 5 mL of fresh Leibovitz media. The cells were counted using an automated cell counter (Cellometer).

rat hepatocytes = assay: Free fraction in rat hepatocytes as surrogate for HH, equilibrium dialysis; type: in vitro ADME; conditions: fraction unbound, measured or estimated by in silico models of Fuinc
[4] = CLint in NADH-supplemented human liver microsomes; conditions: for microsomal CLint at 1 µM / CLint scaled at 1 µM: human
Experimental: as §1

in vitro [5] = conditions: human, Caco-2
in vitro [6] = conditions: human, hepatocytes; for hepatocyte CLint: both
Experimental: as §2

POR = POR for cofactor; cited from earlier work
Cytb5R = Cytb5R for cofactor; cited from earlier work
[7] = Intrinsic permeability in Caco-2 cells with efflux inhibited; conditions: human, Caco-2
CYP1A2-Cytb5R = target: T1, CYP1A2-Cytb5R (Homo sapiens, UniProt P05177); assay: Turnover by non-canonical recombinant CYP1A2-Cytb5R; type: in vitro ADME; conditions: noncanonical CYP1A2-Cytb5R
T1 construct: purchased BioIVT (custom synthesis) CE00001 (CYP1A2), batch CPD034-1A2-30; host or cells: bactosomes
T1 sequence (P05177 1-516): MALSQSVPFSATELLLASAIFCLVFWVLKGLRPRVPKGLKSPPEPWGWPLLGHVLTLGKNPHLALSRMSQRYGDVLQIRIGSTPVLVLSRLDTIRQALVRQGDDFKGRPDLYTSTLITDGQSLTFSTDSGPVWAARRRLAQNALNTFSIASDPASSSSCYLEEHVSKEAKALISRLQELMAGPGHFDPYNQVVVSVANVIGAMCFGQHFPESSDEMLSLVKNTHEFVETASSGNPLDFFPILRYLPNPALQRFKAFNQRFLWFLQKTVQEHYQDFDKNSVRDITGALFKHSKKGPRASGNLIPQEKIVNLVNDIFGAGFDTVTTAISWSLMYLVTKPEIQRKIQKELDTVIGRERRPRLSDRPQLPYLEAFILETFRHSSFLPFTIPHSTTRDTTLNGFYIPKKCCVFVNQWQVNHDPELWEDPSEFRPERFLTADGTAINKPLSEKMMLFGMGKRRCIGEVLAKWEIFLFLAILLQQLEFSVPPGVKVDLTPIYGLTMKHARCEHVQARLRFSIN
Excerpt: As commercial recombinant human CYPs co-express the individual CYP and reductase with an option to include cytochrome b5. A custom synthesis co-expressing CYP3A4 or CYP1A2 and Cytb5R plus cytochrome b5 was, therefore, ordered from BioIVT and the bactosomes were compared with canonical CYP-POR enzymes plus cytochrome b5.

[8] = 1 µM, single determination, Fig. 4a,d
[9] = HH_CLint, 1 µM, single determination, Fig. 4a
[10] = NADPH-HLM, individual determinations 1-3, Fig. 1
[11] = human liver microsomes + NADPH, pH 7.4, Scaled HLM CLint,u, NADPH-HLM, individual determinations 1-3, Fig. 1
[12] = human liver microsomes, pH 7.4, Scaled HLM CLint,u average, NADPH-HLM, average, Fig. 1
[13] = Scaled HH CLint,u average, HH, average, Fig. 1
[14] = Scaled HH CLint,u, HH, individual determinations 1-3, Fig. 1
[15] = HH, individual determinations 1-3, Fig. 1

## CCN(C(=O)c1cc(F)ccc1Oc1nncnc1N1CCC2(C1)CN([C@H](CCCN(C)CCOC)C(C)C)C2)C(C)C [Bleximenib]
[1]; [8]
  HLM_NADPH CLint: 34.3 µL/min/mg
[1]; Fig. 4a,d
  NADPH_HLM_scaled_CLint,u: 44.9563 mL/min/kg
Caco-2 cells
  Caco-2 Papp: 0.575 10-6 cm/s
[2]
  fu_HLM: 0.721
[3]
  LogD pH 7.4: 0.74
Human hepatocytes (HH); 1 µM
  HH_CLint: 1.166 uL/min/106 cells
Human hepatocytes (HH)
  HH_scaled_CLint,u: 3.701 mL/min/kg
Rat hepatocytes
  fu_ratHH: 0.794

## O=C1Nc2ccc(Cl)cc2C(c2ccccc2Cl)=NC1O (stereo not drawn) [Lorazepam]
[4]; microsomes, pH 7.4, HLM_NADH CLint, 1 µM, single determination, Fig. 4a,d
  microsomal CLint at 1 µM: 3 µL/min/mg
[4]; microsomes, pH 7.4, NADH_HLM_scaled_CLint,u, Fig. 4a,d
  CLint scaled at 1 µM: 3.92 mL/min/kg
[1]; microsomes, pH 7.4, HLM_NADPH CLint, 1 µM, single determination, Fig. 4a,d
  microsomal CLint at 1 µM: 4.99 µL/min/mg
[1]; microsomes, pH 7.4, NADPH_HLM_scaled_CLint,u, Fig. 4a,d
  CLint scaled at 1 µM: 6.51 mL/min/kg
[2]
  fu_HLM: 0.724
In vitro [5]
  Papp: 67.2 ×10⁻⁶ cm/s
In vitro [6]; [9]
  hepatocyte CLint: 2.77 µL/min/1e6 cells
In vitro [6]; HH_scaled_CLint,u, Fig. 4a
  CLint scaled: 9.63 mL/min/kg
Rat hepatocytes
  fu_ratHH: 0.724

## NC(=O)C1=CN([C@@H]2O[C@H](COP(=O)(O)OP(=O)(O)OC[C@H]3O[C@@H](n4cnc5c(N)ncnc54)[C@H](O)[C@@H]3O)[C@@H](O)[C@H]2O)C=CC1 [NADH]
POR
  Km: 48000 µM
Cytb5R
  Km: 6 µM

## NC(=O)C1=CN([C@@H]2O[C@H](COP(=O)(O)OP(=O)(O)OC[C@H]3O[C@@H](n4cnc5c(N)ncnc54)[C@H](OP(=O)(O)O)[C@@H]3O)[C@@H](O)[C@H]2O)C=CC1 [NADPH]
POR
  Km: 2 to 15 µM
Cytb5R
  Km: 1000 µM

## CCOc1ccc(NC(C)=O)cc1 [Phenacetin]
[4]; human liver microsomes + NADH, pH 7.4
  microsomal CLint at 1 µM: 5.68 µL/min/mg
[4]; human liver microsomes, pH 7.4
  CLint scaled at 1 µM: 5.66 mL/min/kg
[1]; human liver microsomes + NADPH, pH 7.4
  microsomal CLint at 1 µM: 24.5 µL/min/mg
[1]; human liver microsomes, pH 7.4, NADPH_HLM_scaled_CLint,u, Fig. 4a,d
  CLint scaled at 1 µM: 24.4 mL/min/kg
[7]
  Papp at 2 h, 10 µM: 76.1 ×10⁻⁶ cm/s
[2]
  fu_HLM: 0.948
CYP1A2-Cytb5R
  turnover (metabolite formation or disappearance of parent): no detectable turnover
[3]
  logD: 1.48
In vitro [6]
  hepatocyte CLint: 7.38 µL/min/1e6 cells
In vitro [6]; HH_scaled_CLint,u, Fig. 4a
  CLint scaled: 19.5 mL/min/kg
Rat hepatocytes
  fu_ratHH: 0.955

## C[C@]12C=CC(=O)C=C1CC[C@@H]1[C@@H]2[C@@H](O)C[C@@]2(C)[C@H]1CC[C@]2(O)C(=O)CO [Prednisolone]
[1]; Fig. 1
  HLM/HH (ratio of scaled CLint,u): 2.917
[1]; [10]
  Scaled HLM CLint,u: 38.7639 mL/min/kg
[1]; [11]
  CLint scaled at 1 µM: 40.8 mL/min/kg
[1]; [12]
  CLint scaled at 1 µM: 40.1 mL/min/kg
In vitro [6]; [13]
  CLint scaled: 13.7 mL/min/kg
In vitro [6]; [14]
  CLint scaled: 14.7 mL/min/kg
Human hepatocytes (HH); [15]
  Scaled HH CLint,u: 12.4648 mL/min/kg and 14.0629 mL/min/kg

## C[C@]12C=CC(=O)C=C1CC[C@@H]1[C@@H]2C(=O)C[C@@]2(C)[C@H]1CC[C@]2(O)C(=O)CO [Prednisone]
[1]; Fig. 1
  HLM/HH (ratio of scaled CLint,u): 0.4866
[1]; [10]
  Scaled HLM CLint,u: 26.9421 mL/min/kg and 25.4228 mL/min/kg
[1]; [11]
  CLint scaled at 1 µM: 29.8 mL/min/kg
[1]; [12]
  CLint scaled at 1 µM: 27.4 mL/min/kg
In vitro [6]; [13]
  CLint scaled: 56.3 mL/min/kg
In vitro [6]; [14]
  CLint scaled: 72.8 mL/min/kg
Human hepatocytes (HH); [15]
  Scaled HH CLint,u: 43.6458 mL/min/kg and 52.3108 mL/min/kg

## C[C@]12CC[C@H]3[C@@H](CCC4=CC(=O)CC[C@@]43C)[C@@H]1CC[C@@H]2O [Testosterone]
[1]; [10]
  Scaled HLM CLint,u: 250.062 mL/min/kg and 237.027 mL/min/kg
[1]; microsomes, pH 7.4, Scaled HLM CLint,u average, NADPH-HLM, average, Fig. 1
  CLint scaled at 1 µM: 246 mL/min/kg
[1]; microsomes, pH 7.4, Scaled HLM CLint,u, NADPH-HLM, individual determinations 1-3, Fig. 1
  CLint scaled at 1 µM: 251 mL/min/kg
In vitro [6]; [13]
  CLint scaled: 1320 mL/min/kg
In vitro [6]; [14]
  CLint scaled: 1780 mL/min/kg
Human hepatocytes (HH); [15]
  Scaled HH CLint,u: 1005.17 mL/min/kg and 1161.02 mL/min/kg

## CCC1=C[C@@H]2CN(C1)Cc1c([nH]c3ccccc13)[C@@](C(=O)OC)(c1cc3c(cc1OC)N(C)[C@H]1[C@@](O)(C(=O)OC)[C@H](OC(C)=O)[C@]4(CC)C=CCN5CC[C@]31[C@@H]54)C2 [Vinorelbin]
[1]; Fig. 1
  HLM/HH (ratio of scaled CLint,u): 13.7107
[1]; [10]
  Scaled HLM CLint,u: 640.935 mL/min/kg and 717.808 mL/min/kg
[1]; [11]
  CLint scaled at 1 µM: 436 mL/min/kg
[1]; [12]
  CLint scaled at 1 µM: 598 mL/min/kg
In vitro [6]; Scaled HH CLint,u
  CLint scaled at 1 µM: 38.9 mL/min/kg
In vitro [6]; Scaled HH CLint,u average
  CLint scaled at 1 µM: 43.6 mL/min/kg
Human hepatocytes (HH); human, hepatocytes, 1 µM
  Scaled HH CLint,u: 48.4191 mL/min/kg

## CC[C@@H]1[C@H](F)C(=O)N[C@@H]1COc1nccc2cc(C(N)=O)c(OC)cc12 [Zimlovisertib]
[4]; microsomes, pH 7.4
  CLint scaled at 1 µM: 8.09 mL/min/kg
[1]; microsomes, pH 7.4, NADPH_HLM_scaled_CLint,u
  CLint scaled at 1 µM: 46.5 mL/min/kg
[7]
  Papp at 2 h, 10 µM: 31.7 ×10⁻⁶ cm/s
[2]
  fu_HLM: 0.817
[3]
  logD: 1.98
In vitro [6]; [9]
  hepatocyte CLint: 5.84 µL/min/1e6 cells
In vitro [6]; HH_scaled_CLint,u, Fig. 4a
  CLint scaled: 18 mL/min/kg
Rat hepatocytes
  fu_ratHH: 0.817

## C[C@]12CCC(=O)C=C1CC[C@@H]1[C@@H]2[C@@H](O)C[C@@]2(C)[C@H]1CC[C@]2(O)C(=O)CO [hydrocortisone]
[1]; Fig. 1
  HLM/HH (ratio of scaled CLint,u): 2.834
[1]; [10]
  Scaled HLM CLint,u: 57.5167 mL/min/kg and 51.9108 mL/min/kg
[1]; [11]
  CLint scaled at 1 µM: 54.9 mL/min/kg
[1]; [12]
  CLint scaled at 1 µM: 54.8 mL/min/kg
In vitro [6]; [13]
  CLint scaled: 19.3 mL/min/kg
In vitro [6]; [14]
  CLint scaled: 22.4 mL/min/kg
Human hepatocytes (HH); [15]
  Scaled HH CLint,u: 16.444 mL/min/kg and 19.1349 mL/min/kg

## AZ23
[4]; [8]
  HLM_NADH CLint: 6.34 µL/min/mg
[4]; Fig. 4a,d
  NADH_HLM_scaled_CLint,u: 10.2767 mL/min/kg
[1]; [8]
  HLM_NADPH CLint: 56.607 µL/min/mg
[1]; Fig. 4a,d
  NADPH_HLM_scaled_CLint,u: 91.7558 mL/min/kg
Caco-2 cells
  Caco-2 Papp: 66.417 10-6 cm/s
[2]
  fu_HLM: 0.583
[3]
  LogD pH 7.4: 3.08
Human hepatocytes (HH); 1 µM
  HH_CLint: 3.309 uL/min/106 cells
Human hepatocytes (HH)
  HH_scaled_CLint,u: 14.4518 mL/min/kg
Rat hepatocytes
  fu_ratHH: 0.577
